Test results taken from patent US20080058213A1, “Benzoxazole Compounds” (priority 2004, published 2008).

How the values were obtained:
Format in all cases: in vivo
[1] = test system: Japanese bulrush (Scirpus juncoides); assay: Weed control test for paddy field (Test Example 1): Japanese bulrush; settings: paddy pots, treated at 1.0 leaf stage of barnyard grass, examined after 3 weeks
Description: (§1) Paddy field soil was filled in 1/10,000 are pots, kneaded with adequate amounts of water and chemical fertilizer, seeded with barnyard grass (Echinochloa crusgalli), Monochoria (Monochoria vaginalis), Japanese bulrush (Scirpus juncoides) and flat sedge (Cyperus serotinus), and further transplanted with 2.0 leaf stage of rice plant. The pots were maintained under the water-filled condition to a depth of 3 cm.
(§2) Wettable powders containing the compounds (1) as identified in Table 1, which were formulated following Production Example 2, were diluted with adequate amount of water and applied to the pots dropwise with pippet at a prescribed dose of the active ingredients per are, at 1.0 leaf stage of the barnyard grass.
(§3) After placing the pots in a glasshouse which was controlled at an average temperature of 25° C. for 3 weeks, herbicidal effect was examined.
(§4) Evaluation of the herbicidal effect is shown in the following six grades, by comparing the condition of untreated control and growth inhibition (%): • 0: 0%-less than 20% • 1: 20%-less than 40% • 2: 40%-less than 60% • 3: 60%-less than 80% • 4: 80%-less than 100% • 5: 100%.

slender amaranth = assay: Foliage treatment test for upland field (Test Example 3): slender amaranth; settings: foliage treatment at 1.0-2.0 leaf stage of southern crabgrass, examined after 3 weeks
Method in brief: (§5)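 Wettable powders diluted to the prescribed dose and sprayed at 15 L/are at the 1.0-2.0 leaf stage of southern crabgrass on glasshouse-grown plants (25° C average). Effect graded 0-5 after 3 weeks from growth inhibition versus untreated control (0: <20% to 5: 100%).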

[2] = test system: flat sedge (Cyperus serotinus); assay: Weed control test for paddy field (Test Example 1): flat sedge; settings: paddy pots, treated at 1.0 leaf stage of barnyard grass, examined after 3 weeks
Description: as §1, §2, §3, §4

rice plant = assay: Weed control test for paddy field (Test Example 1): phytotoxicity to rice plant; settings: paddy pots, treated at 1.0 leaf stage of barnyard grass, examined after 3 weeks
Description: as §1, §2, §3
Evaluation of phytotoxicity is shown in the following six grades, as compared with the condition of untreated control: • 0: normal growth • 1: little damaged • 2: low damaged • 3: medium damaged • 4: serious damaged • 5: complete killed.

[3] = test system: barnyard grass (Echinochloa crusgalli); assay: Weed control test for paddy field (Test Example 1): barnyard grass; settings: paddy pots, treated at 1.0 leaf stage of barnyard grass, examined after 3 weeks
Description: as §1, §2, §3, §4

wheat [4] = assay: Soil treatment test for upland field (Test Example 2): phytotoxicity to wheat; settings: soil treatment before germination, examined after 3 weeks
[5] = test system: southern crabgrass (Digitaria ciliaris); assay: Soil treatment test for upland field (Test Example 2): southern crabgrass; settings: soil treatment before germination, examined after 3 weeks
Method in brief: (§6)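 Pots of upland soil were seeded and covered, then wettable-powder formulations at the prescribed active-ingredient dose were sprayed onto the soil surface before weed germination, in 15 liters water per are. After 3 weeks in a glasshouse at about 25° C., growth inhibition versus untreated control was scored 0 (<20%) to 5 (100%).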

velvetleaf = assay: Foliage treatment test for upland field (Test Example 3): velvetleaf; settings: foliage treatment at 1.0-2.0 leaf stage of southern crabgrass, examined after 3 weeks
Method in brief: as §5

soybean [6] = assay: Soil treatment test for upland field (Test Example 2): phytotoxicity to soybean; settings: soil treatment before germination, examined after 3 weeks
wheat [7] = assay: Foliage treatment test for upland field (Test Example 3): phytotoxicity to wheat; settings: foliage treatment at 1.0-2.0 leaf stage of southern crabgrass, examined after 3 weeks
Method in brief: (§7)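 Crops sown in compost-mixed soil pots, kept in a glasshouse at 25° C. average. Effect scored after 3 weeks versus untreated control on a 0–5 scale (0 normal growth, 5 complete kill).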

corn [8] = assay: Soil treatment test for upland field (Test Example 2): phytotoxicity to corn; settings: soil treatment before germination, examined after 3 weeks
[9] = test system: slender amaranth (Amaranthus viridis); assay: Soil treatment test for upland field (Test Example 2): slender amaranth; settings: soil treatment before germination, examined after 3 weeks
Method in brief: as §6

soybean [10] = assay: Foliage treatment test for upland field (Test Example 3): phytotoxicity to soybean; settings: foliage treatment at 1.0-2.0 leaf stage of southern crabgrass, examined after 3 weeks
Method in brief: as §7

common lambsquaters = assay: Foliage treatment test for upland field (Test Example 3): common lambsquaters; settings: foliage treatment at 1.0-2.0 leaf stage of southern crabgrass, examined after 3 weeks
Method in brief: as §5

common purslane = assay: Foliage treatment test for upland field (Test Example 3): common purslane; settings: foliage treatment at 1.0-2.0 leaf stage of southern crabgrass, examined after 3 weeks
Method in brief: as §5

[11] = test system: Monochoria (Monochoria vaginalis); assay: Weed control test for paddy field (Test Example 1): Monochoria; settings: paddy pots, treated at 1.0 leaf stage of barnyard grass, examined after 3 weeks
Description: as §1, §2, §3, §4

[12] = test system: velvetleaf (Abutilon theophrasti); assay: Soil treatment test for upland field (Test Example 2): velvetleaf; settings: soil treatment before germination, examined after 3 weeks
Method in brief: as §6

[13] = test system: common purslane (Portulaca oleracea); assay: Soil treatment test for upland field (Test Example 2): common purslane; settings: soil treatment before germination, examined after 3 weeks
Method in brief: as §6

corn [14] = assay: Foliage treatment test for upland field (Test Example 3): phytotoxicity to corn; settings: foliage treatment at 1.0-2.0 leaf stage of southern crabgrass, examined after 3 weeks
Method in brief: as §7

southern crabgrass = assay: Foliage treatment test for upland field (Test Example 3): southern crabgrass; settings: foliage treatment at 1.0-2.0 leaf stage of southern crabgrass, examined after 3 weeks
Method in brief: as §5

[15] = test system: common lambsquaters (Chenopodium album); assay: Soil treatment test for upland field (Test Example 2): common lambsquaters; settings: soil treatment before germination, examined after 3 weeks
Method in brief: as §6

## CCOCC(=Cc1cccc(C(F)(F)F)c1)c1nc2cc(C(F)(F)F)ccc2o1 [Compound 54]
[1]; dose 2.5 g ai/a
  Herbicidal Effect Japanese bulrush: 4 (80%-less than 100%)
[1]; dose 5 g ai/a
  Herbicidal Effect Japanese bulrush: 5 (100%)
Slender amaranth; dose 2.5 g ai/a
  Herbicidal Effect slender amaranth: 5 (100%)
Slender amaranth; dose 5 g ai/a
  Herbicidal Effect slender amaranth: 5 (100%)
[2]; dose 2.5 g ai/a
  Herbicidal Effect Flat sedge: 3 (60%-less than 80%)
[2]; dose 5 g ai/a
  Herbicidal Effect Flat sedge: 4 (80%-less than 100%)
Rice plant; dose 2.5 g ai/a
  Phytotoxicity Rice plant: 1
Rice plant; dose 5 g ai/a
  Phytotoxicity Rice plant: 1
[3]; dose 2.5 g ai/a
  Herbicidal Effect Barnyard grass: 5 (100%)
[3]; dose 5 g ai/a
  Herbicidal Effect Barnyard grass: 5 (100%)
Wheat [4]; dose 2.5 g ai/a
  Phytotoxicity wheat: 1
Wheat [4]; dose 5 g ai/a
  Phytotoxicity wheat: 1
[5]; dose 2.5 g ai/a
  Herbicidal Effect southern crabgrass: 5 (100%)
[5]; dose 5 g ai/a
  Herbicidal Effect southern crabgrass: 5 (100%)
velvetleaf; dose 2.5 g ai/a
  Herbicidal Effect velvetleaf: 5 (100%)
velvetleaf; dose 5 g ai/a
  Herbicidal Effect velvetleaf: 5 (100%)
Soybean [6]; dose 2.5 g ai/a
  Phytotoxicity soybean: 0
Soybean [6]; dose 5 g ai/a
  Phytotoxicity soybean: 1
Wheat [7]; dose 2.5 g ai/a
  Phytotoxicity wheat: 1
Wheat [7]; dose 5 g ai/a
  Phytotoxicity wheat: 1
Corn [8]; dose 2.5 g ai/a
  Phytotoxicity corn: 1
Corn [8]; dose 5 g ai/a
  Phytotoxicity corn: 1
[9]; dose 2.5 g ai/a
  Herbicidal Effect slender amaranth: 5 (100%)
[9]; dose 5 g ai/a
  Herbicidal Effect slender amaranth: 5 (100%)
Soybean [10]; dose 2.5 g ai/a
  Phytotoxicity soybean: 2
Soybean [10]; dose 5 g ai/a
  Phytotoxicity soybean: 2
Common lambsquaters; dose 2.5 g ai/a
  Herbicidal Effect Common lambsquatters: 5 (100%)
Common lambsquaters; dose 5 g ai/a
  Herbicidal Effect Common lambsquatters: 5 (100%)
Common purslane; dose 2.5 g ai/a
  Herbicidal Effect common purslane: 5 (100%)
Common purslane; dose 5 g ai/a
  Herbicidal Effect common purslane: 5 (100%)
[11]; dose 2.5 g ai/a
  Herbicidal Effect Monochoria vaginalis: 5 (100%)
[11]; dose 5 g ai/a
  Herbicidal Effect Monochoria vaginalis: 5 (100%)
[12]; dose 2.5 g ai/a
  Herbicidal Effect velvetleaf: 5 (100%)
[12]; dose 5 g ai/a
  Herbicidal Effect velvetleaf: 5 (100%)
[13]; dose 2.5 g ai/a
  Herbicidal Effect common purslane: 5 (100%)
[13]; dose 5 g ai/a
  Herbicidal Effect common purslane: 5 (100%)
Corn [14]; dose 2.5 g ai/a
  Phytotoxicity corn: 1
Corn [14]; dose 5 g ai/a
  Phytotoxicity corn: 2
Southern crabgrass; dose 2.5 g ai/a
  Herbicidal Effect southern crabgrass: 5 (100%)
Southern crabgrass; dose 5 g ai/a
  Herbicidal Effect southern crabgrass: 5 (100%)
[15]; dose 2.5 g ai/a
  Herbicidal Effect common lambsquaters: 5 (100%)
[15]; dose 5 g ai/a
  Herbicidal Effect common lambsquaters: 5 (100%)

## COCC(=Cc1ccc(F)c(C(F)(F)F)c1)c1nc2cc(F)c(F)cc2o1 [Compound 126]
[1]; dose 2.5 g ai/a
  Herbicidal Effect Japanese bulrush: 3 (60%-less than 80%)
[1]; dose 5 g ai/a
  Herbicidal Effect Japanese bulrush: 4 (80%-less than 100%)
Slender amaranth; dose 2.5 g ai/a
  Herbicidal Effect slender amaranth: 5 (100%)
Slender amaranth; dose 5 g ai/a
  Herbicidal Effect slender amaranth: 5 (100%)
[2]; dose 2.5 g ai/a
  Herbicidal Effect Flat sedge: 2 (40%-less than 60%)
[2]; dose 5 g ai/a
  Herbicidal Effect Flat sedge: 3 (60%-less than 80%)
Rice plant; dose 2.5 g ai/a
  Phytotoxicity Rice plant: 0
Rice plant; dose 5 g ai/a
  Phytotoxicity Rice plant: 0
[3]; dose 2.5 g ai/a
  Herbicidal Effect Barnyard grass: 5 (100%)
[3]; dose 5 g ai/a
  Herbicidal Effect Barnyard grass: 5 (100%)
Wheat [4]; dose 2.5 g ai/a
  Phytotoxicity wheat: 0
Wheat [4]; dose 5 g ai/a
  Phytotoxicity wheat: 0
[5]; dose 2.5 g ai/a
  Herbicidal Effect southern crabgrass: 4 (80%-less than 100%)
[5]; dose 5 g ai/a
  Herbicidal Effect southern crabgrass: 5 (100%)
velvetleaf; dose 2.5 g ai/a
  Herbicidal Effect velvetleaf: 3 (60%-less than 80%)
velvetleaf; dose 5 g ai/a
  Herbicidal Effect velvetleaf: 4 (80%-less than 100%)
Soybean [6]; dose 2.5 g ai/a
  Phytotoxicity soybean: 0
Soybean [6]; dose 5 g ai/a
  Phytotoxicity soybean: 0
Wheat [7]; dose 2.5 g ai/a
  Phytotoxicity wheat: 0
Wheat [7]; dose 5 g ai/a
  Phytotoxicity wheat: 1
Corn [8]; dose 2.5 g ai/a
  Phytotoxicity corn: 0
Corn [8]; dose 5 g ai/a
  Phytotoxicity corn: 0
[9]; dose 2.5 g ai/a
  Herbicidal Effect slender amaranth: 5 (100%)
[9]; dose 5 g ai/a
  Herbicidal Effect slender amaranth: 5 (100%)
Soybean [10]; dose 2.5 g ai/a
  Phytotoxicity soybean: 1
Soybean [10]; dose 5 g ai/a
  Phytotoxicity soybean: 1
Common lambsquaters; dose 2.5 g ai/a
  Herbicidal Effect Common lambsquatters: 5 (100%)
Common lambsquaters; dose 5 g ai/a
  Herbicidal Effect Common lambsquatters: 5 (100%)
Common purslane; dose 2.5 g ai/a
  Herbicidal Effect common purslane: 5 (100%)
Common purslane; dose 5 g ai/a
  Herbicidal Effect common purslane: 5 (100%)
[11]; dose 2.5 g ai/a
  Herbicidal Effect Monochoria vaginalis: 5 (100%)
[11]; dose 5 g ai/a
  Herbicidal Effect Monochoria vaginalis: 5 (100%)
[12]; dose 2.5 g ai/a
  Herbicidal Effect velvetleaf: 3 (60%-less than 80%)
[12]; dose 5 g ai/a
  Herbicidal Effect velvetleaf: 4 (80%-less than 100%)
[13]; dose 2.5 g ai/a
  Herbicidal Effect common purslane: 5 (100%)
[13]; dose 5 g ai/a
  Herbicidal Effect common purslane: 5 (100%)
Corn [14]; dose 2.5 g ai/a
  Phytotoxicity corn: 0
Corn [14]; dose 5 g ai/a
  Phytotoxicity corn: 1
Southern crabgrass; dose 2.5 g ai/a
  Herbicidal Effect southern crabgrass: 4 (80%-less than 100%)
Southern crabgrass; dose 5 g ai/a
  Herbicidal Effect southern crabgrass: 5 (100%)
[15]; dose 2.5 g ai/a
  Herbicidal Effect common lambsquaters: 5 (100%)
[15]; dose 5 g ai/a
  Herbicidal Effect common lambsquaters: 5 (100%)
